Like-named read-outs stand apart in the source and are kept apart here.

We go through eleven compounds from patent publication US20240124454A1, “TRICYCLIC COMPOUND AND USE THEREOF” (NANJING ZAIMING PHARMACEUTICAL CO., LTD., priority 2020, published 2024).

Series [1] in a line: Metabolic stability in human liver microsomes. The series is classed as in vitro ADME. As to conditions: pH 7.4, 1 μM compound, 0.5 mg/mL microsome, NADPH, read-out: Human liver microsome stability t1/2. The method, then:
Test Example 4. Determination of Metabolic Stability of Compound of the Present Application in Liver Microsomes
The metabolic stability of the compound of the present application in liver microsomes was determined using the following method.
I. Experimental materials and instruments • 1. Human liver microsome (Corning 452117), beagle dog liver microsome (XENOTECH D1000), SD rat liver microsome (XENOTECH R1000), and CD-i mouse liver microsome (XENOTECH M1000) • 2. Na2HPO4 (Tianjin Guangfu Fine Chemical Research Institute 20180130) • 3. KH2PO4 (Tianjin Guangfu Fine Chemical Research Institute 20180920) • 4. MgCl2 (Tianjin Guangfu Fine Chemical Research Institute 20191216) • 5. NADPH (Solarbio 1216C022) • 6. Positive control compound verapamil (Sigma MKBV4993V) • 7. AB Sciex API4000 liquid chromatography-mass spectrometry system
1. Preparation of 100 mMV phosphate-buffered saline (PBS): 7.098 g Na2HPO4 was weighed. 500 mL pure water was added. The mixture was dissolved by sonication to give solution A. 3.400 g KH2PO4 was weighed. 250 mL pure water was added. The mixture was dissolved by sonication to give solution B. The solution A was placed in a stirrer, and the solution B was slowly added until the pH reached 7.4, so that the 100 mM PBS buffer was prepared.
2. Preparation of reaction system
The reaction system was prepared as follows:
3. The reaction system was pre-incubated in a 37° C. water bath for 10 min. 40 μL of 10 mM NADPH solution (NADPH was dissolved by 100 mM phosphate-buffered saline) was added to the reaction system with a final concentration of NADPH being 1 mM. A negative control was made by replacing the NADPH solution with 40 μL phosphate-buffered saline. The negative control was used to exclude the effect of chemical stability of the compound itself.
4. The reaction was initiated by adding 4 μL of 100 μM of the compound of the present application and verapamil, the positive control compound, to the reaction system with a final concentration of the compound being 1 μM.
5. After being uniformly mixed in a vortex oscillator, 50 μL incubation sample was respectively taken out at 0.5, 15, 30, 45, and 60 min, and the reaction was stopped by 200 μL glacial acetonitrile containing an internal standard. The sample was centrifuged at 3220 g for 45 min. 90 μL of the supernatant was transferred to a feeding plate after the centrifugation was completed, and 90 μL ultrapure water was added. The mixture was well mixed for LC-MS/MS analysis.
All data were calculated by Microsoft Excel software. The peak area was detected through an extracted ion chromatogram. The in vitro half-life (t1/2) of the compound was determined by linear fitting of the natural logarithm of compound elimination percentage over time.
In vitro half-life (t1/2) was calculated by the slope: […]
The in vitro intrinsic clearance (in μL/min/mg protein) was calculated using the following formula:
in vitro CLint=k×volume of incubation (μL)/amount of proteins (mg)
CLint was intrinsic clearance; k was an elimination rate constant; volume of incubation was the incubation volume (μL); amount of proteins was the amount of protein (mg)

For series [2], the system named is HCT116 WT cells. Kind of series: Cell proliferation inhibition test (Cell-Titer Glo), HCT116 WT. Format: cell-based, human. As to conditions: 6 days, read-out: HCT116 WT Antiproliferative activity IC50. In outline: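 Cells seeded at 400 per well, overnight, then exposed 6 days at 37 °C to compound from 10 μM top final concentration in 3-fold dilutions. Viability by ATP luminescence (Cell-Titer Glo), normalised to medium-only and DMSO controls, IC50 by curve fitting.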

Consider `Cc1ncccc1-n1c(=O)c2ncn(C)c2c2ccc(C(F)(F)F)nc21` (atropisomer, axis not shown) [Compound 20, 1-methyl-5-(2-methylpyridin-3-yl)-7-(trifluoromethyl)-1,5-dihydro-4H-imidazo[4,5-c][1,8]naphthyridin-4-one], for which, in series [1], the half-life at 1 μM was over 5 h. In addition, the IC50 (commonly the midpoint of a concentration-inhibition curve) in series [2] (Homo sapiens, HCT-116, 144 h) is 0.474 µM.
Taken in the same sequence, the figures for `Cn1cnc2c(=O)n(-c3cccc(F)c3Cl)c3nc(C(F)(F)F)ccc3c21` (atropisomer, axis not shown) [Compound 25, 5-(2-chloro-3-fluorophenyl)-1-methyl-7-(trifluoromethyl)-1,5-dihydro-4H-imidazo[4,5-c][1,8]naphthyridin-4-one] were over 5 h and 0.663 µM.
Taken in the same sequence, the figures for `Cn1cnc2c(=O)n(-c3cccc(F)c3Cl)c3nc(C(F)(F)F)ccc3c21` (single isomer, unassigned) [Compound 25-P2, 5-(2-chloro-3-fluorophenyl)-1-methyl-7-(trifluoromethyl)-1,5-dihydro-4H-imidazo[4,5-c][1,8]naphthyridin-4-one] were over 5 h and 0.384 µM.
In the same order, the values of `Cn1cnc2c(=O)n(-c3cccnc3C(F)(F)F)c3nc(C(F)(F)F)ccc3c21` (single isomer, unassigned) [Compound 41-P2, 1-methyl-7-(trifluoromethyl)-5-(2-(trifluoromethyl)pyridin-3-yl)-1,5-dihydro-4H-imidazo[4,5-c][1,8]naphthyridin-4-one] are over 5 h and 3.82 µM.
Take `Cn1cnc2c(=O)n(-c3cccnc3C3CC3)c3nc(C(F)(F)F)ccc3c21` (single isomer, unassigned) [Compound 42-P2, 5-(2-cyclopropylpyridin-3-yl)-1-methyl-7-(trifluoromethyl)-1,5-dihydro-4H-imidazo[4,5-c][1,8]naphthyridin-4-one]: in series [1], the half-life at 1 μM is 4.26 h. Also, the IC50 in series [2] (Homo sapiens, HCT-116, 144 h) amounted to 1.32 µM.
Taken in the same sequence, the figures for `Cn1cnc2c(=O)n(-c3cccnc3C3CC3)c3cc(C(F)(F)F)ccc3c21` (single isomer, unassigned) [Compound 48-P2, 5-(2-cyclopropylpyridin-3-yl)-1-methyl-7-(trifluoromethyl)-1,5-dihydro-4H-imidazo[4,5-c]quinolin-4-one] were over 5 h and over 10 µM.
For the compound `Cn1cnc2c(=O)n(-c3cccnc3C3CC3)c3cc(Cl)ccc3c21` (single isomer, unassigned) [Compound 49-P2, 7-chloro-5-(2-cyclopropylpyridin-3-yl)-1-methyl-1,5-dihydro-4H-imidazo[4,5-c]quinolin-4-one], the half-life at 1 μM in series [1] was 3.78 h. For the same compound, the half-maximal inhibitory concentration (IC50) in series [2] (Homo sapiens, HCT-116, 144 h) was 0.488 µM.
In the same order, the values of `O=c1c2ncoc2c2ccc(C(F)(F)F)nc2n1-c1cccnc1C1CC1` (single isomer, unassigned) [Compound 81-P2, 5-(2-cyclopropylpyridin-3-yl)-7-(trifluoromethyl)oxazolo[4,5-c][1,8]naphthyridin-4(5H)-one] are over 5 h and 1.34 µM.
Regarding `Cn1cnc2c(=O)n(-c3cccc(F)c3Cl)c3cc(Cl)ccc3c21` [Compound 39, 7-chloro-5-(2-chloro-3-fluorophenyl)-1-methyl-1,5-dihydro-4H-imidazo[4,5-c]quinolin-4-one], the IC50 in series [2] was found to be 0.626 µM.
In the case of `Cc1ncccc1-n1c(=O)c2ncoc2c2ccc(C(F)(F)F)nc21` [Compound 40, 5-(2-methylpyridin-3-yl)-7-(trifluoromethyl)oxazolo[4,5-c][1,8]naphthyridin-4(5H)-one], the half-life at 1 μM in series [1] is over 5 h. In addition, the IC50 in series [2] (Homo sapiens, HCT-116, 144 h) stood at 0.414 µM.
Consider `Cc1ncccc1-n1c(=O)c2ncn(C)c2c2ccc(C(F)(F)F)cc21` [Compound 45, 1-methyl-5-(2-methylpyridin-3-yl)-7-(trifluoromethyl)-1,5-dihydro-4H-imidazo[4,5-c]quinolin-4-one], for which, in series [1], the half-life at 1 μM was over 5 h. The concentration for half-maximal inhibition (IC50) in series [2] (Homo sapiens, HCT-116, 144 h) stood at 0.902 µM.
